# Results from ChEMBL document CHEMBL1139017, “Synthesis and biological activity of (+)-hedychilactone A and its analogs from (+)-sclareolide” (Bioorg Med Chem Lett, 2006).
# Assays:
# B16 = assay: Cytotoxicity against B16 cancer cell line; format: functional, cell-based; settings: Mus musculus
# SiHa = assay: Cytotoxicity against SiHa cancer cell line; format: functional, cell-based; settings: Homo sapiens
# U-87 MG = assay: Cytotoxicity against U87 cancer cell line; format: functional, cell-based, U-87MG ATCC; settings: Homo sapiens
# HUVEC [1] = assay: Antiangiogenic activity against HUVEC cells; format: functional, cell-based; settings: Homo sapiens
# HUVEC [2] = assay: Inhibition of NO production in HUVEC cells; format: functional, cell-based; settings: Homo sapiens
# U373 MG = assay: Cytotoxicity against U373 cancer cell line; format: functional, cell-based, U-373MG ATCC; settings: Homo sapiens
# SK-OV-3 = assay: Cytotoxicity against sk-ov-3 cancer cell line; format: functional, cell-based; settings: Homo sapiens
SMILES,IC50 (B16),IC50 (SiHa),IC50 (U-87 MG),IC50 (HUVEC [1]),IC50 (HUVEC [2]),IC50 (U373 MG),IC50 (SK-OV-3)
C=C1CC[C@H]2C(C)(C)CCC[C@]2(C)[C@H]1C/C=C1/CCOC1=O,17.6 µg/mL,> 50 µg/mL,> 50 µg/mL,2.2 µg/mL,4.5 µg/mL,40.4 µg/mL,4.3 µg/mL
CC1=CC[C@H]2C(C)(C)CCC[C@]2(C)[C@H]1C/C=C1\CCOC1=O,9.1 µg/mL,17 µg/mL,9.2 µg/mL,2.6 µg/mL,18 µg/mL,4.7 µg/mL,6 µg/mL
C=C1C(=O)C[C@H]2C(C)(C)CCC[C@]2(C)[C@H]1C/C=C1\CCOC1=O,3.4 µg/mL,7 µg/mL,1.7 µg/mL,1.2 µg/mL,0.7 µg/mL,3.7 µg/mL,0.9 µg/mL
CC1=CC[C@H]2C(C)(C)CCC[C@]2(C)[C@H]1CC=O,21.8 µg/mL,20.9 µg/mL,11.7 µg/mL,4.8 µg/mL,6 µg/mL,20.6 µg/mL,23.5 µg/mL
C=C1[C@H](O)C[C@H]2C(C)(C)CCC[C@]2(C)[C@H]1C/C=C1/CCOC1=O,> 50 µg/mL,> 50 µg/mL,> 50 µg/mL,12.4 µg/mL,8 µg/mL,> 50 µg/mL,10.1 µg/mL
C=C1CC[C@H]2C(C)(C)CCC[C@]2(C)[C@H]1CC=O,4 µg/mL,14.5 µg/mL,4.1 µg/mL,2.9 µg/mL,> 25 µg/mL,7 µg/mL,3.1 µg/mL
C=C1CC[C@H]2C(C)(C)CCC[C@]2(C)[C@H]1C/C=C1\CCOC1=O,17.6 µg/mL,20.2 µg/mL,5 µg/mL,1.7 µg/mL,5 µg/mL,15.1 µg/mL,2 µg/mL
CC1=CC[C@H]2C(C)(C)CCC[C@]2(C)[C@H]1C/C=C1/CCOC1=O,> 50 µg/mL,> 50 µg/mL,> 50 µg/mL,4.3 µg/mL,> 25 µg/mL,> 50 µg/mL,> 50 µg/mL
C=C1[C@H](O)C[C@H]2C(C)(C)CCC[C@]2(C)[C@H]1C/C=C1\CCOC1=O,16.7 µg/mL,32 µg/mL,12.7 µg/mL,6.9 µg/mL,13.2 µg/mL,14.9 µg/mL,12.4 µg/mL
C=C1C(=O)C[C@H]2C(C)(C)CCC[C@]2(C)[C@H]1C/C=C1/CCOC1=O,1.5 µg/mL,3.4 µg/mL,1.43 µg/mL,0.6 µg/mL,0.9 µg/mL,0.6 µg/mL,0.8 µg/mL
C=C1[C@@H](O)C[C@H]2C(C)(C)CCC[C@]2(C)[C@H]1C/C=C1/CCOC1=O,> 50 µg/mL,31.7 µg/mL,> 50 µg/mL,13.8 µg/mL,11.2 µg/mL,15.7 µg/mL,5.3 µg/mL
C=C1[C@@H](O)C[C@H]2C(C)(C)CCC[C@]2(C)[C@H]1C/C=C1\CCOC1=O [HEDYCHILACTONE A],> 50 µg/mL,> 50 µg/mL,36.8 µg/mL,12.6 µg/mL,11 µg/mL,> 50 µg/mL,8.7 µg/mL
CC(=O)O[C@H]1C(=O)[C@@]2(C)[C@H]([C@H](OC(=O)c3ccccc3)[C@]3(O)C[C@H](OC(=O)[C@H](O)[C@@H](NC(=O)c4ccccc4)c4ccccc4)C(C)=C1C3(C)C)[C@]1(OC(C)=O)CO[C@@H]1C[C@@H]2O [PACLITAXEL],< 0.1 µg/mL,1.3 µg/mL,3.2 µg/mL,0.3 µg/mL,,,8.7 µg/mL
